Laboratory results as given in US20140171404A1, “Autotaxin inhibitors” (NOVARTIS AG, priority 2012, published 2014).

biological target: T1, Recombinant human ATX (Homo sapiens, UniProt Q13822); assay: Assessing ATX inhibition: released choline, Amplex Red fluorescence; type: biochemical; details: not given
T1 construct: made in house; host or cells: human embryonic kidney (HEK) cells
Method: LPC (oleoyl (18:1)) was purchased from Avanti Polar Lipids (Alabaster; AL) and solubilized in methanol to 20 mM. Amplex Red was obtained from Invitrogen Life Technologies (Paisley, UK) and dissolved in DMSO to 10 mM. Choline oxidase and horseradish peroxidase (HRP) were obtained from Sigma Aldrich (Dorset, UK) and dissolved in HBSS to 20 U/ml and 200 U/ml respectively. All reagents were stored at −20° C. in single use aliquots. All experimental measurements were performed in assay buffer made up immediately prior to use (HBSS, 0.01% BSA essentially fatty acid free).
Recombinant human ATX was prepared at Novartis (Basel, CH) in a human embryonic kidney (HEK) cell preparation, and stored in single use aliquots of […] (26 μM) stocks stored at −80° C.
All experimental measurements were performed in black 384 well polystyrene (low volume, round bottom, Corning (3676)) plates. PerkinElmer EnVision (Fluorescence Intensity/Absorbance Monochromator) or Tecan Infinite 200 PRO series plate reader was used to detect change in fluorescent intensity.
ATX activity was determined by measurement of released choline in reactions containing ATX (10 nM), choline oxidase (0.1 U/ml), HRP (100 U/ml), amplex red (50 μM) and LPC 18:1 (10 μM). Compounds of the invention were prepared as 10 point serial dilutions from 1 μM in duplicate and pre-incubated with ATX at 37° C. for 20 minutes prior to the addition of remaining reagents. The liberated choline was measured from changes in fluorescence intensity (λex 530 nm, λem 590 nm) of the product resurofin at 37° C. every 2 minutes over a 40-minute period. ATX activity was measured as a slope of the linear portion of the progress curve, typically between 14 to 24 minutes.
Slope data was exported to Graphpad prism (Graphpad software, San Diego, Calif.) where data was fitted to equation 1.
Y=Bottom+(Top−Bottom)/(1+10̂((Log IC50−X)*HillSlope)) Equation 1: […]

**Q.** How did the IC50 turn out when O=C(NC1CC2CCC(C1)N2C(=O)CCCc1c[nH]nn1)OCc1cc(Cl)cc(Cl)c1 (stereo not drawn) [Example 47, 3,5-Dichlorobenzyl (8-(4-(1H-1,2,3-triazol-4-yl)butanoyl)-8-azabicyclo[3.2.1]octan-3-yl)carbamate] was run?
**A.** 3160 nM

same assay, conditions: ATX 10 nM, LPC 18:1 10 μM, pre-incubated with ATX at 37° C. for 20 minutes; Table 1, exemplified compounds; read-out: IC50

**Q.** With O=C(CCc1cc(O)no1)NCC1CCN(C(=O)OCc2cc(Cl)cc(Cl)c2)CC1 [Example 33, 3,5-Dichlorobenzyl 4-((3-(3-hydroxyisoxazol-5-yl)propanamido)methyl)piperidine-1-carboxylate] as the compound, how does the IC50 read?
**A.** 131 nM

**Q.** Which IC50 does the source give for O=C(NCCCN1CCN(C(=O)OCc2cc(Cl)cc(Cl)c2)CC1)c1c[nH]nn1 [Example 34, 3,5-Dichlorobenzyl 4-(3-(1H-1,2,3-triazole-4-carboxamido)propyl)piperazine-1-carboxylate] here?
**A.** 282 nM

**Q.** For CN(CCC1CCN(C(=O)OCc2cc(Cl)cc(Cl)c2)CC1)C(=O)c1c[nH]nn1 [Example 35, 3,5-Dichlorobenzyl 4-(2-(N-methyl-1H-1,2,3-triazole-4-carboxamido)ethyl)piperidine-1-carboxylate], which IC50 is on record?
**A.** 175 nM

**Q.** O=C(CCCc1c[nH]nn1)NC1CCN(C(=O)OCc2cc(F)cc(Cl)c2)CC1 [Example 37, 3-Chloro-5-fluorobenzyl 4-(4-(1H-1,2,3-triazol-4-yl)butanamido)piperidine-1-carboxylate] was tested. Which IC50 did it give?
**A.** 55 nM

**Q.** With O=C(CCCc1c[nH]nn1)NC1CCN(C(=O)/C=C/c2cc(Cl)cc(Cl)c2)CC1 [Example 38, (E)-N-(1-(3-(3,5-Dichlorophenyl)acryloyl)piperidin-4-yl)-4-(1H-1,2,3-triazol-4-yl)butanamide] as the compound, how does the IC50 read?
**A.** 21 nM

**Q.** Which IC50 does the source give for O=C(CCCc1c[nH]nn1)NC1CCN(C(=O)/C=C/c2ccc(Cl)cc2Cl)CC1 [Example 39, (E)-N-(1-(3-(2,4-Dichlorophenyl)acryloyl)piperidin-4-yl)-4-(1H-1,2,3-triazol-4-yl)butanamide] here?
**A.** 77 nM

**Q.** Which IC50 does the source give for O=C(O)CCCCCCC(=O)NC1CCN(C(=O)OCc2cc(Cl)cc(Cl)c2)CC1 [Example 40, 8-((1-(((3,5-Dichlorobenzyl)oxy)carbonyl)piperidin-4-yl)amino)-8-oxooctanoic acid] here?
**A.** 135 nM

**Q.** Which IC50 does the source give for O=C(CCCc1cnn[nH]1)NCC1CCN(C(=O)OCc2cc(Cl)cc(Cl)c2)CC1 [Example 41, 3,5-Dichlorobenzyl 4-((4-(1H-1,2,3-triazol-5-yl)butanamido)methyl)piperidine-1-carboxylate] here?
**A.** 18 nM

**Q.** O=C(CCCc1c[nH]nn1)NC1CCN(C(=O)CCc2cc(Cl)cc(Cl)c2)CC1 [Example 42, N-(1-(3-(3,5-Dichlorophenyl)propanoyl)piperidin-4-yl)-4-(1H-1,2,3-triazol-4-yl)butanamide] was tested. Which IC50 did it give?
**A.** 119 nM

**Q.** How did the IC50 turn out when O=C(CCCc1c[nH]nn1)NC1CCN(C(=O)CCc2ccc(Cl)cc2Cl)CC1 [Example 43, N-(1-(3-(2,4-Dichlorophenyl)propanoyl)piperidin-4-yl)-4-(1H-1,2,3-triazol-4-yl)butanamide] was run?
**A.** 113 nM

**Q.** Which IC50 does the source give for N#Cc1cc(Cl)cc(COC(=O)N2CCC(NC(=O)CCCc3c[nH]nn3)CC2)c1 [Example 44, 3-Chloro-5-cyanobenzyl 4-(4-(1H-1,2,3-triazol-4-yl)butanamido)piperidine-1-carboxylate] here?
**A.** 8 nM

**Q.** For O=C(CCCc1c[nH]nn1)NC1CC2CCC(C1)N2C(=O)OCc1cc(Cl)cc(Cl)c1 (stereo not drawn) [Example 45, 3,5-Dichlorobenzyl 3-(4-(1H-1,2,3-triazol-4-yl)butanamido)-8-azabicyclo[3.2.1]octane-8-carboxylate], which IC50 is on record?
**A.** 555 nM

**Q.** O=C(CCCc1c[nH]nn1)NC1CCCN(C(=O)OCc2cc(Cl)cc(Cl)c2)CC1 (stereo not drawn) [Example 46, 3,5-Dichlorobenzyl 4-(4-(1H-1,2,3-triazol-4-yl)butanamido)azepane-1-carboxylate] was tested. Which IC50 did it give?
**A.** 731 nM

**Q.** With O=C(NC1CCCN(C(=O)CCCc2c[nH]nn2)CC1)OCc1cc(Cl)cc(Cl)c1 (stereo not drawn) [Example 48, 3,5-Dichlorobenzyl (1-(4-(1H-1,2,3-triazol-4-yl)butanoyl)azepan-4-yl)carbamate] as the compound, how does the IC50 read?
**A.** 791 nM

**Q.** For O=C(CCCc1c[nH]nn1)NC1CN(C(=O)OCc2cc(Cl)cc(Cl)c2)C1 [Example 50, 3,5-Dichlorobenzyl 3-(4-(1H-1,2,3-triazol-4-yl)butanamido)azetidine-1-carboxylate], which IC50 is on record?
**A.** 12 nM

**Q.** How did the IC50 turn out when Cc1cc(C)cc(COC(=O)N2CCC(NC(=O)CCCc3c[nH]nn3)CC2)c1 [Example 51, 3,5-Dimethyl benzyl 4-(4-(1H-1,2,3-triazol-4-yl)butanamido)piperidine-1-carboxylate] was run?
**A.** 6 nM

**Q.** For O=C(NC1CCN(C(=O)CCCCc2c[nH]nn2)CC1)OCc1cc(Cl)cc(Cl)c1 [Example 52, 3,5-Dichlorobenzyl (1-(5-(1H-1,2,3-triazol-4-yl)pentanoyl)piperidin-4-yl)carbamate], which IC50 is on record?
**A.** 42 nM

**Q.** How did the IC50 turn out when O=C(CCCc1c[nH]nn1)NC1CCN(C(=O)OCc2ccc(C(F)(F)F)cc2)CC1 [Example 53, 4-(Trifluoromethyl)benzyl 4-(4-(1H-1,2,3-triazol-4-yl)butanamido)piperidine-1-carboxylate] was run?
**A.** 40 nM

**Q.** How did the IC50 turn out when O=C(CCCc1c[nH]nn1)NC1CCN(C(=O)CCc2ccc(C(F)(F)F)cc2)CC1 [Example 54, 4-(1H-1,2,3-Triazol-4-yl)-N-(1-(3-(4-(trifluoromethyl)phenyl)propanoyl)piperidin-4-yl)butanamide] was run?
**A.** 87 nM

**Q.** O=C(CCCc1c[nH]nn1)NC1CCN(C(=O)COc2cc(Cl)cc(Cl)c2)CC1 [Example 55, N-(1-(2-(3,5-Dichlorophenoxy)acetyl)piperidin-4-yl)-4-(1H-1,2,3-triazol-4-yl)butanamide] was tested. Which IC50 did it give?
**A.** 154 nM

**Q.** Which IC50 does the source give for Cc1cc(Cl)cc(COC(=O)N2CCC(NC(=O)CCCc3c[nH]nn3)CC2)c1 [Example 56, 3-Chloro-5-methylbenzyl 4-(4-(1H-1,2,3-triazol-4-yl)butanamido)piperidine-1-carboxylate] here?
**A.** 10 nM

**Q.** O=C(CCc1cnn[nH]1)NCC1CCN(C(=O)OCc2cc(Cl)cc(Cl)c2)CC1 [Example 57, 3,5-Dichlorobenzyl 4-((3-(1H-1,2,3-triazol-5-yl)propanamido)methyl)piperidine-1-carboxylate] was tested. Which IC50 did it give?
**A.** 17 nM

**Q.** With O=C(CCCc1c[nH]nn1)NC1CCN(C(=O)OCc2ccc(Cl)cc2Cl)CC1 [Example 58, 2,4-Dichlorobenzyl 4-(4-(1H-1,2,3-triazol-4-yl)butanamido)piperidine-1-carboxylate] as the compound, how does the IC50 read?
**A.** 206 nM

**Q.** For O=C(CCCc1c[nH]nn1)NC1CCN(C(=O)OCCc2cc(Cl)cc(Cl)c2)CC1 [Example 59, 3,5-Dichlorophenethyl 4-(4-(1H-1,2,3-triazol-4-yl)butanamido)piperidine-1-carboxylate], which IC50 is on record?
**A.** 24 nM

**Q.** With O=C(CCC1CCN(C(=O)OCc2cc(Cl)cc(Cl)c2)CC1)NCc1c[nH]nn1 [Example 60, 3,5-Dichlorobenzyl 4-(3-(((1H-1,2,3-triazol-4-yl)methyl)amino)-3-oxopropyl)piperidine-1-carboxylate] as the compound, how does the IC50 read?
**A.** 7 nM

**Q.** How did the IC50 turn out when O=C(CC1CCN(C(=O)OCc2cc(Cl)cc(Cl)c2)CC1)NCCc1c[nH]nn1 [Example 61, 3,5-Dichlorobenzyl 4-(2-((2-(1H-1,2,3-triazol-4-yl)ethyl)amino)-2-oxoethyl)piperidine-1-carboxylate] was run?
**A.** 15 nM

**Q.** Which IC50 does the source give for Cc1cc(COC(=O)N2CCC(NC(=O)CCCc3c[nH]nn3)CC2)cc(C(F)(F)F)c1 [Example 62, 3-Methyl-5-(trifluoromethyl)benzyl 4-(4-(1H-1,2,3-triazol-4-yl)butanamido)piperidine-1-carboxylate] here?
**A.** 5 nM

**Q.** How did the IC50 turn out when O=C(CCCc1c[nH]nn1)NC1CCN(C(=O)OCc2cc(Br)cc(C(F)(F)F)c2)CC1 [Example 63, 3-Bromo-5-(trifluoromethyl)benzyl 4-(4-(1H-1,2,3-triazol-4-yl)butanamido)piperidine-1-carboxylate] was run?
**A.** 3 nM

**Q.** Which IC50 does the source give for N#Cc1cc(Cl)cc(COC(=O)N2CCC(NC(=O)CCCCc3c[nH]nn3)CC2)c1 [Example 64, 3-Chloro-5-cyanobenzyl 4-(5-(1H-1,2,3-triazol-4-yl)pentanamido)piperidine-1-carboxylate] here?
**A.** 8 nM

**Q.** With N#Cc1cc(Cl)cc(COC(=O)N2CCC(NC(=O)CCc3c[nH]nn3)CC2)c1 [Example 65, 3-Chloro-5-cyanobenzyl 4-(3-(1H-1,2,3-triazol-4-yl)propanamido)piperidine-1-carboxylate] as the compound, how does the IC50 read?
**A.** 26 nM

**Q.** Which IC50 does the source give for N#Cc1cc(COC(=O)N2CCC(NC(=O)CCCc3c[nH]nn3)CC2)cc(C(F)(F)F)c1 [Example 66, 3-Cyano-5-(trifluoromethyl)benzyl 4-(4-(1H-1,2,3-triazol-4-yl)butanamido)piperidine-1-carboxylate] here?
**A.** 4 nM

**Q.** For O=C(CCCCCc1c[nH]nn1)NC1CCN(C(=O)OCc2cc(Cl)cc(Cl)c2)CC1 [Example 67, 3,5-Dichlorobenzyl 4-(6-(1H-1,2,3-triazol-4-yl)hexanamido)piperidine-1-carboxylate], which IC50 is on record?
**A.** 4 nM
